Results: patent publication US10196363B2, “Dihydropyrimidin-2-one compounds and medical use thereof” (JAPAN TOBACCO INC., priority 2014, dated 2019)
Where two headings read alike, the source gives them in different places.

How the values were obtained:
human RORγ = target: T1, human RORγ (Homo sapiens, UniProt P51449); assay: In vitro assay of inhibitory effect against RORγ transcriptional activity (GAL4-hRORγ LBD luciferase reporter gene assay in CHO cells); type: cell-based; conditions: for hRORγ luciferase activity, %-of-control: value in parentheses beside the > EC50 bound, vehicle-control 0.2% DMSO alone = 100%
T1 construct: human RORγ, from Ser253 to Lys518; expressed in transfected cells; host or cells: CHO cells (Chinese hamster ovary), transient co-transfection with pG5-Luc
T1 sequence (P51449 253-518): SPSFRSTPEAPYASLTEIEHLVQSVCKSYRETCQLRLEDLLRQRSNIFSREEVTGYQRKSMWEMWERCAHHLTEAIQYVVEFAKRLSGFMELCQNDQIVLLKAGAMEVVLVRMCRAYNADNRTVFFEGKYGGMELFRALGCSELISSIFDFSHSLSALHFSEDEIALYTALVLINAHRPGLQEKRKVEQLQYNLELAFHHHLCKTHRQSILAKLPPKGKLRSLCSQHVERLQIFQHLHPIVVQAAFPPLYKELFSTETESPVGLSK
In short: (§1)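 GAL4-DBD fused to RORγ LBD (human Ser253–Lys518; mouse Ile251–Lys516) was transiently co-transfected with GAL4-driven pG5-Luc firefly luciferase into CHO cells. Cells were treated with 8 concentrations of compound (0.2% DMSO) for 2 days at 37 °C, then luminescence was read. EC50 was fitted from %-of-vehicle control.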

mouse RORγ = target: T2, mouse RORγ (Mus musculus, UniProt P51450); assay: In vitro assay of inhibitory effect against RORγ transcriptional activity (GAL4-mRORγ LBD luciferase reporter gene assay in CHO cells); type: cell-based; conditions: for mRORγ luciferase activity, %-of-control: value in parentheses beside the > EC50 bound, vehicle-control 0.2% DMSO alone = 100%
T2 construct: mouse RORγ, from Ile251 to Lys516; expressed in transfected cells; host or cells: CHO cells (Chinese hamster ovary), transient co-transfection with pG5-Luc
T2 sequence (P51450 251-516): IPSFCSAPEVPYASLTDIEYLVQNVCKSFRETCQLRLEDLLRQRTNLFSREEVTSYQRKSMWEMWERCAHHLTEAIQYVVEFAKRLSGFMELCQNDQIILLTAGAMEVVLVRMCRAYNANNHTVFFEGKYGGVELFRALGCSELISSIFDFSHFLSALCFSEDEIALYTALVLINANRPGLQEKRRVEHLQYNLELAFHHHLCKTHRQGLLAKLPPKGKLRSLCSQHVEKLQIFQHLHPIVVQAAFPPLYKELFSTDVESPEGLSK
In short: as §1

[1] = GAL4-hRORγ LBD luciferase reporter, CHO cells, read-out: LUC EC50 hRORγ
[2] = GAL4-mRORγ LBD luciferase reporter, CHO cells, read-out: LUC EC50 mRORγ
[3] = GAL4-hRORγ LBD / pG5-Luc in CHO cells, 2 days incubation
[4] = GAL4-mRORγ LBD / pG5-Luc in CHO cells, 2 days incubation

Row | SMILES | EC50 (human RORγ; [1]) | EC50 (mouse RORγ; [2]) | EC50 (human RORγ; [3]) | EC50 (mouse RORγ; [4]) | hRORγ luciferase activity, %-of-control (human RORγ) | mRORγ luciferase activity, %-of-control (mouse RORγ)
1 | COCC(C)C1=CN(CCC(=O)O)C(=O)N[C@@]1(C)c1ccc(CCC(C)(C)C)c(Cl)c1 (single isomer, unassigned) [Example 306] | 63 nM | 27 nM |  |  |  | 
2 | COCCC1=CN(c2ccc(C(=O)O)cn2)C(=O)N[C@@]1(C)c1ccc(CC2CCCCC2)c(Cl)c1 [Example 338] | 13 nM | 12 nM |  |  |  | 
3 | CCCCc1ccc(C2(C)NC(=O)N(CCCC(=O)O)C=C2C(C)C)cc1F (racemic) [Example 70] |  |  | 251 nM | 133 nM |  | 
4 | CC(C)C1=CN(CCC(=O)O)C(=O)N[C@]1(C)c1ccc(CCC2CCCCC2)c(Cl)c1 [Example 138] |  |  | > 8000 nM | > 8000 nM | (85%) | (96%)
5 | CC(C)C1=CN(CCCC(=O)O)C(=O)N[C@@]1(C)c1ccc(CCC(C)(C)C)c(Cl)c1 [Example 15] |  |  | 12 nM | 12 nM |  | 
6 | CC(C)C1=CN(CCC(=O)O)C(=O)N[C@]1(C)c1ccc(C2CCC(C)(C)CC2)c(Cl)c1 [Example 117] |  |  | > 3200 nM | > 8000 nM | (106%) | (76%)
7 | CC(C)C1=CN(C[C@H]2C[C@H](C(=O)O)C2)C(=O)NC1(C)c1ccc(CCC(C)(C)C)c(Cl)c1 (mixture of isomers) [Example 80] |  |  | 16 nM | 17 nM |  | 
8 | CC(C)C1=CN(CCC(=O)O)C(=O)N[C@@]1(C)c1ccc2c(c1)CC(C)(C)C2 [Example 113] |  |  | 3030 nM | 1400 nM |  | 
9 | CC(C)C1=CN(CCc2ccc(C(=O)O)cc2)C(=O)N[C@]1(C)c1ccc(CCC(C)(C)C)c(Cl)c1 [Example 49] |  |  | 983 nM | 832 nM |  | 
10 | CC(C)(C)CCc1ccc(C2NC(=O)N([C@H]3C[C@H](C(=O)O)C3)C=C2C(C)(C)C)cc1Cl (single isomer, unassigned) [Example 101] |  |  | 32 nM | 21 nM |  | 
11 | CC(C)COc1c(F)cc([C@]2(C)NC(=O)N(CCC(=O)O)C=C2C(C)C)cc1Cl [Example 194] | 58 nM | 28 nM |  |  |  | 
12 | CC(C)C1=CN(CCC(=O)O)C(=O)N[C@]1(C)c1ccc(CCCC(F)(F)F)c(Cl)c1 [Example 128] |  |  | > 20000 nM | > 20000 nM | (66%) | (54%)
13 | COCCC1=CN(CCC(=O)O)C(=O)N[C@@]1(C)c1ccc(CC2CCCCC2)c(Cl)c1 [Example 335] | 26 nM | 11 nM |  |  |  | 
14 | CC(C)C1=CN(C2CN(S(C)(=O)=O)CC2C(=O)O)C(=O)N[C@@]1(C)c1ccc(CCC(C)(C)C)c(Cl)c1 (single isomer, unassigned) [Example 240] | 108 nM | 147 nM |  |  |  | 
15 | CC(C)(C)CCc1ccc([C@]2(C)NC(=O)N(c3ccc(C(=O)O)cn3)C=C2C2CC(F)(F)C2)cc1Cl [Example 320] | 23 nM | 27 nM |  |  |  | 
16 | CC(C)CCOc1c(F)cc([C@]2(C)NC(=O)N(CCC(=O)O)C=C2C(C)C)cc1Cl [Example 195] | 18 nM | 12 nM |  |  |  | 
17 | CC(C)C1=CN(CCCCC(=O)O)C(=O)N[C@]1(C)c1ccc(CCC(C)(C)C)c(Cl)c1 [Example 47] |  |  | 1100 nM | 764 nM |  | 
18 | CC(C)C1=CN(CCC(=O)O)C(=O)N[C@@]1(C)c1ccc(C2CCCCC2)c(Cl)c1 [Example 136] |  |  | 94 nM | 49 nM |  | 
19 | CC(C)C1=CN(CCC(=O)O)C(=O)N[C@@]1(C)c1ccc(CC2CCCCC2)c(Cl)c1 [Example 268] | 15 nM | 14 nM |  |  |  | 
20 | CC(C)C1=CN(C2CN(C(=O)OC(C)(C)C)CC2C(=O)O)C(=O)N[C@@]1(C)c1ccc(CCC(C)(C)C)c(Cl)c1 (single isomer, unassigned) [Example 237] | 719 nM | 673 nM |  |  |  | 
21 | COCCC1=CN(CCC(=O)O)C(=O)N[C@@]1(C)c1ccc(CCC(C)(C)C)c(Cl)c1 [Example 211] | 11 nM | 8 nM |  |  |  | 
22 | CC(C)(C)CCc1ccc([C@]2(C)NC(=O)N(CCC(=O)O)C=C2C2CC(F)(F)C2)cc1C(F)(F)F [Example 343] | 38 nM | 19 nM |  |  |  | 
